Earlier results in patent publication US6812249B2, “Process for preparing a 3-hydroxy-3-methylbutyrate amino acid salt and method of use” (priority 2003, dated 2004).

Details: experienced weight trained athletes; oral supplementation for 6 weeks or 28 days

## CC(C)(O)CC(=O)[O-].CC(C)(O)CC(=O)[O-].[Ca+2] [HMB calcium salt]
  alteration in muscle size, fat mass, or strength variables: no alteration in muscle size, fat mass, or strength variables
